Assay in all cases: relative viability (nuclei count vs DMSO), 5 days (fraction); higher = more cells survive
Compound in assay [1]: CC1=CC(=CC=C1)NC2=NC(=CS2)C3=CC=NC=C3 + Nc1ncn([C@H]2C[C@H](O)[C@@H](CO)O2)c(=O)n1 [Decitabine] (partner 2 µM)
A digest of the protocol: (§1)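 Relative viability is defined as nuclei in treated wells over nuclei in vehicle wells. Duplicate plates were run and medians reported. Lung cancer cell lines in 1536-well plates were dosed by pin tool one day after seeding, with one drug or with a fixed anchor-drug dose plus five library-drug doses (not always all listed) in √10 steps, and nuclei were counted after 5 days.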

Compound in assay [2]: CC1=CC(=CC=C1)NC2=NC(=CS2)C3=CC=NC=C3 + O=C(CCCCCCC(=O)Nc1ccccc1)NO [Vorinostat] (partner 1 µM)
A digest of the protocol:
as §1

Compound in the assay “Masitinib + Lapatinib”: Cc1ccc(NC(=O)c2ccc(CN3CCN(C)CC3)cc2)cc1Nc1nc(-c2cccnc2)cs1 [Masitinib] + CS(=O)(=O)CCNCc1ccc(-c2ccc3ncnc(Nc4ccc(OCc5cccc(F)c5)c(Cl)c4)c3c2)o1 [Lapatinib] (partner 2 µM)
A digest of the protocol: as §1

Compound in the assay “Masitinib + Alpelisib”: Cc1ccc(NC(=O)c2ccc(CN3CCN(C)CC3)cc2)cc1Nc1nc(-c2cccnc2)cs1 [Masitinib] + Cc1nc(NC(=O)N2CCC[C@H]2C(N)=O)sc1-c1ccnc(C(C)(C)C(F)(F)F)c1 [Alpelisib] (partner 2 µM)
The gist of the method:
as §1

Turning to PC-3 [JPC-3], the relative viability in assay [1] (first compound 0.08 µM) is 0.783; in assay [1] (first compound 0.8 µM) it was 0.865; in assay [1] (first compound 2.53 µM) it was 0.72; in assay [1] (first compound 8 µM), 0.756; in assay [2] (first compound 0.08 µM), 0.579; in assay [2] (first compound 0.8 µM), 0.811. The relative viability in assay [2] (first compound 2.53 µM) stood at 0.575; in assay [2] (first compound 8 µM), 0.803; with Masitinib + Lapatinib (first compound 0.01 µM), 0.474; with Masitinib + Lapatinib (first compound 0.03162 µM), 0.416; in the assay with Masitinib + Lapatinib (first compound 0.1 µM), 0.462; in the assay with Masitinib + Lapatinib (first compound 0.3162 µM), 0.367. The relative viability with Masitinib + Lapatinib (first compound 1 µM) was 0.422; in the assay with Masitinib + Alpelisib (first compound 0.01 µM), 1.01; in the assay with Masitinib + Alpelisib (first compound 0.03162 µM), 1.03; in the assay with Masitinib + Alpelisib (first compound 0.1 µM), 0.978; in the assay with Masitinib + Alpelisib (first compound 0.3162 µM), 1.03; in the assay with Masitinib + Alpelisib (first compound 1 µM), 1.01.
PC-14: the relative viability came out at 0.174 in assay [1] (first compound 0.08 µM); 0.186 in assay [1] (first compound 0.253 µM); 0.187 in assay [1] (first compound 0.8 µM); 0.177 in assay [1] (first compound 2.53 µM); 0.217 in assay [1] (first compound 8 µM); 0.84 in assay [2] (first compound 0.08 µM). Besides, the relative viability in assay [2] (first compound 0.253 µM) is 0.674; in assay [2] (first compound 0.8 µM) it was 0.715; in assay [2] (first compound 2.53 µM), 0.867; in assay [2] (first compound 8 µM), 0.666; with Masitinib + Lapatinib (first compound 0.01 µM) it was 0.286; with Masitinib + Lapatinib (first compound 0.03162 µM), 0.314. The relative viability worked out at 0.315 in the assay with Masitinib + Lapatinib (first compound 0.1 µM); 0.185 in the assay with Masitinib + Lapatinib (first compound 0.3162 µM); 0.309 with Masitinib + Lapatinib (first compound 1 µM); 0.915 in the assay with Masitinib + Alpelisib (first compound 0.01 µM); 0.865 with Masitinib + Alpelisib (first compound 0.03162 µM); 1.11 in the assay with Masitinib + Alpelisib (first compound 0.1 µM). Besides, the relative viability with Masitinib + Alpelisib (first compound 0.3162 µM) was determined as 1.01; with Masitinib + Alpelisib (first compound 1 µM) it was 0.846.
In the case of RERF-LC-KJ, the relative viability is 0.675 in assay [1] (first compound 0.08 µM); 0.64 in assay [1] (first compound 0.253 µM); 0.62 in assay [1] (first compound 0.8 µM); 0.522 in assay [1] (first compound 2.53 µM); 0.387 in assay [1] (first compound 8 µM); 0.662 in assay [2] (first compound 0.08 µM). In addition, the relative viability was 0.541 in assay [2] (first compound 0.253 µM); 0.526 in assay [2] (first compound 0.8 µM); 0.373 in assay [2] (first compound 2.53 µM); 0.279 in assay [2] (first compound 8 µM); 0.94 with Masitinib + Lapatinib (first compound 0.01 µM); 0.705 with Masitinib + Lapatinib (first compound 0.03162 µM). In addition, the relative viability stood at 0.83 with Masitinib + Lapatinib (first compound 0.1 µM); 0.73 in the assay with Masitinib + Lapatinib (first compound 0.3162 µM); 0.719 in the assay with Masitinib + Lapatinib (first compound 1 µM); 0.865 with Masitinib + Alpelisib (first compound 0.01 µM); 0.762 in the assay with Masitinib + Alpelisib (first compound 0.03162 µM); 0.917 with Masitinib + Alpelisib (first compound 0.1 µM). In addition, the relative viability with Masitinib + Alpelisib (first compound 0.3162 µM) worked out at 0.842; in the assay with Masitinib + Alpelisib (first compound 1 µM), 0.738.
As to SK-LU-1, the relative viability in assay [1] (first compound 0.08 µM) worked out at 0.624; in assay [1] (first compound 0.253 µM), 0.625; in assay [1] (first compound 0.8 µM) it was 0.563; in assay [1] (first compound 2.53 µM), 0.617; in assay [1] (first compound 8 µM), 0.726; in assay [2] (first compound 0.08 µM), 0.76. In addition, the relative viability in assay [2] (first compound 0.253 µM) was determined as 0.796; in assay [2] (first compound 0.8 µM), 0.53; in assay [2] (first compound 2.53 µM), 0.799; in assay [2] (first compound 8 µM), 0.727; in the assay with Masitinib + Lapatinib (first compound 0.01 µM), 0.928; in the assay with Masitinib + Lapatinib (first compound 0.03162 µM), 0.853. Besides, the relative viability with Masitinib + Lapatinib (first compound 0.1 µM) turned out to be 1.04; in the assay with Masitinib + Lapatinib (first compound 0.3162 µM) it was 0.986; with Masitinib + Lapatinib (first compound 1 µM), 0.779; with Masitinib + Alpelisib (first compound 0.01 µM) it was 1.12; with Masitinib + Alpelisib (first compound 0.03162 µM) it was 1.14; with Masitinib + Alpelisib (first compound 0.1 µM), 0.984. Further, the relative viability was 1.31 in the assay with Masitinib + Alpelisib (first compound 0.3162 µM) and 1.03 in the assay with Masitinib + Alpelisib (first compound 1 µM).
In the case of SK-MES-1, the relative viability in assay [1] (first compound 0.08 µM) stood at 0.37; in assay [1] (first compound 0.253 µM), 0.361; in assay [1] (first compound 0.8 µM), 0.367; in assay [1] (first compound 2.53 µM), 0.373; in assay [1] (first compound 8 µM), 0.378; in assay [2] (first compound 0.08 µM) it was 0.851. The relative viability in assay [2] (first compound 0.253 µM) was 0.829; in assay [2] (first compound 0.8 µM), 0.819; in assay [2] (first compound 2.53 µM) it was 0.86; in assay [2] (first compound 8 µM), 0.822; in the assay with Masitinib + Lapatinib (first compound 0.01 µM), 0.473; in the assay with Masitinib + Lapatinib (first compound 0.03162 µM) it was 0.426. For the same cell line, the relative viability in the assay with Masitinib + Lapatinib (first compound 0.1 µM) stood at 0.518; in the assay with Masitinib + Lapatinib (first compound 0.3162 µM), 0.386; with Masitinib + Lapatinib (first compound 1 µM), 0.45; with Masitinib + Alpelisib (first compound 0.01 µM) it was 1.07; with Masitinib + Alpelisib (first compound 0.03162 µM), 0.946; with Masitinib + Alpelisib (first compound 0.1 µM) it was 1.08. The relative viability with Masitinib + Alpelisib (first compound 0.3162 µM) was 0.921; with Masitinib + Alpelisib (first compound 1 µM), 0.732.
SW 1573: the relative viability in assay [1] (first compound 0.08 µM) turned out to be 0.48; in assay [1] (first compound 0.253 µM), 0.409; in assay [1] (first compound 0.8 µM) it was 0.441; in assay [1] (first compound 2.53 µM) it was 0.454; in assay [1] (first compound 8 µM), 0.485; in assay [2] (first compound 0.08 µM), 0.739. For the same cell line, the relative viability in assay [2] (first compound 0.253 µM) amounted to 0.748; in assay [2] (first compound 0.8 µM), 0.815; in assay [2] (first compound 2.53 µM), 0.727; in assay [2] (first compound 8 µM), 0.687; with Masitinib + Lapatinib (first compound 0.01 µM), 0.986; in the assay with Masitinib + Lapatinib (first compound 0.03162 µM), 1.17. The relative viability with Masitinib + Lapatinib (first compound 0.1 µM) turned out to be 1.2; with Masitinib + Lapatinib (first compound 0.3162 µM), 0.73; with Masitinib + Lapatinib (first compound 1 µM), 0.987; with Masitinib + Alpelisib (first compound 0.01 µM), 0.89; with Masitinib + Alpelisib (first compound 0.03162 µM), 0.768; with Masitinib + Alpelisib (first compound 0.1 µM), 0.873. The relative viability in the assay with Masitinib + Alpelisib (first compound 0.3162 µM) turned out to be 0.831; with Masitinib + Alpelisib (first compound 1 µM), 0.66.

For the origin of these results see the supplement of paper PMC10307832.
